Assay results published in paper PMC10945555, “Improving Activity of New Arylurea Agents against Multidrug-Resistant and Biofilm-Producing Staphylococcus epidermidis” (ACS Medicinal Chemistry Letters, 2024).
Converted amounts (≈) assume the structure as drawn. Read-outs that look alike come from different tables or passages of the source.

Columns and labels:
[1] = test system: Staphylococcus epidermidis ATCC 12228; assay: MIC, broth microdilution, MSSE reference strain; type: cell-based
From the text: (§1) These strains included susceptible, multidrug-resistant, and biofilm-producing strains of S. epidermidis and S. aureus (MSSE, MDR/BPSE, and MDR/BPSA, respectively). The cornerstone antibiotic linezolid served as a positive control (Table 1). The impact of structural modifications at the aryloxy fragment and the aromatic moiety bound to the propyl linker on the inhibitory activity was initially investigated. […] Further optimization focused on evaluating the impact of the type of substituent and its position on the arylsulfonamide fragment’s activity.
(§2) 2 Biological assay protocols
(§3) Microbiological tests were carried out under aseptic conditions in a laminar chamber of the 2nd […]
(§4) (BioTectum 1.2, Alchem Poland). The assessment of antimicrobial activity was carried out for final compounds in the form of free bases, soluble in DMSO (Merck, Germany), at the initial […]
(§5) concentration of 1 mg/mL. […]
(§6) were provided by Cayman Chemical, USA.
(§7) The activity of all newly synthesized compounds was tested in vitro on a panel of selected reference strains from the American Type Culture Collection (ATCC) of Gram-positive […]
(§8) 2.2 Effect of evaluated compounds on planktonic cells
(§9) The susceptibility of three reference bacterial strains (Staphylococcus epidermidis ATCC […]
(§10) Table S1) and 81 clinical MDR S. epidermidis (Table S2) to the tested compounds was assessed by determining the MIC value (Minimal Inhibitory Concentration) by microdilution in a liquid medium in 96-well flat-bottom cell culture plates (Nest Biotechnology Scientific, USA). The antibacterial properties of the compo unds were tested in the concentration range from 50 µg/mL to 0.1 µg/mL by making a series of double dilutions of the compound in liquid Mueller -Hinton II Broth Cation Adjusted (MHB II, BBL TM, USA) according to the European Committee on […]
(§11) Antimicrobial Susceptibility Testing guidelines (EUCAST).2,3 The determinations were performed twice. The MIC50 and MIC90 values were determined for each of the tested

[2] = test system: Staphylococcus epidermidis ATCC 35984; assay: MIC, broth microdilution, MDR/BPSE reference strain; type: cell-based; conditions: for MIC: Staphylococcus epidermidis, ATCC35984, read-out: MIC MDR/BPSE, Staphylococcus epidermidis ATCC 35984
From the text: as §1, §2, §3, §4, §5, §6, §7, §8, §9, §10, §11

[3] = test system: Staphylococcus aureus ATCC BAA-976; assay: MIC, broth microdilution, MDR/BPSA reference strain; type: cell-based
From the text: as §1, §2, §3, §4, §5, §6, §7, §8, §9, §10, §11

Gram-negative bacteria = assay: MIC, tested Gram-negative bacteria (hit screening); type: cell-based
From the text: (§12) Despite numerous efforts to ensure sterility and encourage the prudent use of currently available antibiotics, morbidity rates persist at high levels. These findings underscore the pressing need for the development of a novel class of potential antimicrobial agents targeting multidrug-resistant and biofilm-forming S. epidermidis. […] Herein we present the discovery of new aryloxy[1-(thien-2-yl)propyl]piperidines with improved antibacterial activity compared to compound I, evaluated against a spectrum of clinical S. epidermidis isolates (81 strains), including multidrug-resistant and biofilm-forming strains. We also determined their bacteriostatic/bactericidal properties and conducted a real-time analysis of bacterial growth. Finally, we evaluated the ability of the most promising compound, 25, in terms of its activity and safety over mammalian cell lines, to disrupt the staphylococcal cell membranes of clinical S. epidermidis.

[4] = test system: Escherichia coli ATCC 25922; assay: MIC, Gram-negative reference strain; type: cell-based; conditions: Escherichia coli, ATCC25922
Procedure: as §2, §3, §4, §5, §6, §7, §8, §9, §10, §11

[5] = test system: Pseudomonas aeruginosa ATCC 27853; assay: MIC, Gram-negative reference strain; type: cell-based; conditions: Pseudomonas aeruginosa, ATCC27853, read-out: MIC P. aeruginosa
Procedure: as §2, §3, §4, §5, §6, §7, §8, §9, §10, §11

[6] = test system: Acinetobacter baumannii ATCC 19606; assay: MIC, Gram-negative reference strain; type: cell-based; conditions: Acinetobacter baumannii, ATCC19606
Procedure: as §2, §3, §4, §5, §6, §7, §8, §9, §10, §11

[7] = test system: reference susceptible and multidrug-resistant S. epidermidis and S. aureus strains; assay: MIC, reference S. epidermidis and S. aureus strains (hit screening); type: cell-based
From the text: as §12

H9c2 cells = assay: Cytotoxicity, MTT assay, cardiomyocytes; type: cell-based; conditions: Rattus norvegicus, 24 h, n = 3
Procedure: (§13) The following cell models were used in the research: rat cardiomyocytes (H9c2 line) and human skin fibroblasts (BJ line). All cell lines used in the work are commercially available and were purchased from ATCC banks (the American Type Culture Collection, Manassas, VI, USA). Cell cultures were carried out in an incubator under standard conditions (37°C, 5% CO 2).
(§14) Culture media (Dulbecco's Modified Eagle's Medium -DMEM (H9c2) and Eagle's Minimum Essential Medium-EMEM (BJ) were supplemented with 10% bovine serum and a 1% mixture of penicillin and streptomycin antibiotics. […]
(§15) doxorubicin (a cytotoxic drug) were used as reference and positive control, respectively. […]
(§16) incubated with studied compound in appropriate concentration for next 24 h. Then MTT solution (5 mg/mL) was transferred into culture medium of incubated cells. After 3 h, once dark crystals of formazan were produced in cells, medium was aspirated and 100 μ L of DMSO was added to dissolve formazan. Absorbance of DMSO solution was read on a multiwell plate reader (Spectra Max iD3, Molecular Devices) at 570 nm. In order to determine viability, absorbance of experimental wells was divided by absorbance of contro l well (not treated) and multiplied by 100 (%). Three separate experiments were performed. IC 50 was calculated using non-linear regression method in OriginPro software. […]

BJ cells = assay: Cytotoxicity, MTT assay, skin fibroblasts; type: cell-based, human; conditions: Homo sapiens, MTT, 24 h, n = 3
Procedure: as §13, §14, §15
as §16, with “solution” for “incubated with studied compound in appropriate concentration for next 24 h. Then MTT solution”

[8] = Staphylococcus aureus, ATCCBAA976, read-out: MIC MDR/BPSA
[9] = ATCC12228, Staphylococcus epidermidis ATCC 12228, read-out: MIC MSSE
[10] = ATCCBAA976, Staphylococcus aureus ATCC BAA-976, read-out: MIC MDR/BPSA

SMILES	MIC [2] [µg/mL]	MIC [3, 8] [µg/mL]	MIC [1, 9] [µg/mL]	MIC [3, 10] [µg/mL]	other results
O=S(=O)(NC1CCN(CCC(Oc2cccc(C(F)(F)F)c2)c2cccs2)CC1)c1cccc(Cl)c1 (stereo not shown) [Compound 13]	3.12 (≈ 5.59 µM)	3.12 (≈ 5.59 µM)	–	–	MIC ([1]; ATCC12228, read-out: MIC MSSE): 3.12 µg/mL (≈ 5.59 µM)
O=S(=O)(NC1CCN(CCC(Oc2ccc(C(F)(F)F)cc2)c2cccs2)CC1)c1ccccc1 (stereo not shown) [Compound 15]	6.25 (≈ 11.9 µM)	–	12.5 (≈ 23.8 µM)	12.5 (≈ 23.8 µM)	–
O=S(=O)(NC1CCN(CCC(Oc2ccc(C(F)(F)F)cc2)c2cccs2)CC1)c1ccccc1Cl (stereo not shown) [Compound 16]	6.25 (≈ 11.2 µM)	–	50 (≈ 89.4 µM)	50 (≈ 89.4 µM)	–
O=S(=O)(NC1CCN(CCC(Oc2ccc(C(F)(F)F)cc2)c2cccs2)CC1)c1cccc(F)c1 (stereo not shown) [Compound 17]	6.25 (≈ 11.5 µM)	6.25 (≈ 11.5 µM)	12.5 (≈ 23 µM)	–	–
Cc1cccc(S(=O)(=O)NC2CCN(CCC(Oc3ccc(C(F)(F)F)cc3)c3cccs3)CC2)c1 (stereo not shown) [Compound 19]	0.2 (≈ 0.371 µM)	–	50 (≈ 92.8 µM)	50 (≈ 92.8 µM)	–
COc1cccc(S(=O)(=O)NC2CCN(CCC(Oc3ccc(C(F)(F)F)cc3)c3cccs3)CC2)c1 (stereo not shown) [Compound 20]	0.1 (≈ 0.18 µM)	–	50 (≈ 90.1 µM)	25 (≈ 45.1 µM)	–
O=S(=O)(NC1CCN(CCC(Oc2ccc(C(F)(F)F)cc2)c2cccs2)CC1)c1ccc(F)cc1 (stereo not shown) [Compound 22]	1.6 (≈ 2.95 µM)	–	6.25 (≈ 11.5 µM)	6.25 (≈ 11.5 µM)	–
O=S(=O)(NC1CCN(CCC(Oc2ccc(C(F)(F)F)cc2)c2cccs2)CC1)c1ccc(Cl)cc1 (stereo not shown) [Compound 23]	0.2 (≈ 0.358 µM)	–	12.5 (≈ 22.4 µM)	6.25 (≈ 11.2 µM)	–
O=C(Nc1ccccc1)NC1CCN(CCC(Oc2ccc(C(F)(F)F)cc2)c2cccs2)CC1 (stereo not shown) [Compound 24]	6.25 (≈ 12.4 µM)	6.25 (≈ 12.4 µM)	–	–	MIC ([1]; ATCC12228, read-out: MIC MSSE): 6.25 µg/mL (≈ 12.4 µM)
O=C(Nc1ccc(F)cc1)NC1CCN(CCC(Oc2ccc(C(F)(F)F)cc2)c2cccs2)CC1 (stereo not shown) [Compound 26]	≥ 6.25	–	50 (≈ 95.9 µM)	–	–
O=C(Nc1ccc(Cl)cc1)NC1CCN(CCC(Oc2ccc(C(F)(F)F)cc2)c2cccs2)CC1 (stereo not shown) [Compound 27]	≥ 6.25	–	50 (≈ 92.9 µM)	–	–
O=S(=O)(NC1CCN(CCC(Oc2cccc(C(F)(F)F)c2)c2ccccc2)CC1)c1cccc(Cl)c1 (stereo not shown) [I]	3.12 (≈ 5.65 µM)	3.12 (≈ 5.65 µM)	–	–	activity towards Gram-negative bacteria (Gram-negative bacteria): Not active; MIC (Gram-negative bacteria; tested Gram-negative bacteria): ≥ 25 µg/mL; MIC [4]: 50 µg/mL (≈ 90.4 µM); MIC [5]: 50 µg/mL (≈ 90.4 µM); MIC [6]: 50 µg/mL (≈ 90.4 µM); MIC [7]: 3.12 to 6.25 µg/mL (≈ 5.65 to 11.3 µM); MIC ([1]; ATCC12228, read-out: MIC MSSE): 3.12 µg/mL (≈ 5.65 µM); MIC MDR/BPSE ([2]; Staphylococcus epidermidis ATCC 35984): 6.25 µg/mL (≈ 11.3 µM)
COc1cccc2c1C(=O)c1c(O)c3c(c(O)c1C2=O)C[C@@](O)(C(=O)CO)C[C@@H]3O[C@H]1C[C@H](N)[C@H](O)[C@H](C)O1 [doxorubicin, reference compound]	–	–	–	–	IC50 (H9c2 cells): 0.39 µg/mL (≈ 0.718 µM); IC50 (BJ cells): 0.39 µg/mL (≈ 0.718 µM)
